What all share (assay type): in vivo
Data set [1] is described as follows: Dog intraocular pressure (Max. ΔIOP). Conditions: Canis lupus familiaris, Conc. 0.1 g/100 mL.
A short description of data set [2]: Dog ocular hyperemia. The following applies: Conc. 0.1 g/100 mL.
Data set [3] can be described thus: Rabbit ocular hyperemia. Conditions: Conc. 0.1 g/100 mL.
Data set [4] can be described thus: Monkey intraocular pressure (Max. ΔIOP). The following applies: Primates, Conc. 0.1 g/100 mL.

The record followed here is US7585895B2, “Therapeutic substituted cyclopentanes” (Allergan, Inc., priority 2005, dated 2009).

As to `CCCCCCc1ccc([C@@H]2[C@@H](C/C=C\CCCC(=O)O)[C@H](Cl)C[C@H]2O)cc1` [compound 6], the change in vivo at 1000 µg/mL in data set [1] was -43%; in data set [4], 32%. Further, in data set [2], the “DOG Max. hpyeremia” value turned out to be 0.6. For the same compound, the “RABBIT Max. hyperemia” value in data set [3] is listed as 0.25.
Consider `CCCCCCc1ccc([C@@H]2[C@@H](C/C=C\CCCC(=O)OC(C)C)[C@H](Cl)C[C@H]2O)cc1` [compound 7], for which the change in vivo at 1000 µg/mL in data set [1] was 20%; in data set [4], 21%. For the same compound, the “DOG Max. hpyeremia” value in data set [2] worked out at 0.5.
